Test results reported in ChEMBL document CHEMBL1157539, “Thousands of chemical starting points for antimalarial lead identification” (Nature, 2010).

system: Plasmodium falciparum; experiment: GSK_TCMDC: Inhibition of Plasmodium falciparum 3D7 in whole erythrocytes, using parasite LDH activity as an index of growth.; type: functional, organism-based; conditions: Plasmodium falciparum, 3D7

Point of comparison: `Cc1ccc(NC(=O)c2c(C)noc2-c2snnc2C)cc1`, XC50 1370 nM. Against it:
- O=C(Cn1c(CCc2cccc(F)c2F)nc(=O)c2ccccc21)N(CCCN1CCCCC1)Cc1ccc(-c2ccc(C(F)(F)F)cc2)cc1 — 1.8-fold lower, 762 nM
- C=CCc1cc(Cc2cnc(N)nc2N)cc(CCC)c1O — within 1.5-fold, 986 nM
- COc1cc([N+](=O)[O-])ccc1NC(=O)c1cc(Cl)ccc1O — within 1.5-fold, 1140 nM
- O=C(Nc1ccc(CN2CCN(S(=O)(=O)c3ccc(Cl)s3)CC2)cc1)c1cccs1 — 1.5-fold lower, 894 nM
- COc1ccc(CNC2Cc3ccccc3C2)cc1-c1ccc(S(=O)(=O)NCCN2CCCC2)cc1 — 2.4-fold lower, 582 nM
- Cc1ccc2cc(NC(=O)c3cccc(C(=O)Nc4ccc5nc(C)ccc5c4)n3)ccc2n1 — within 1.5-fold, 1170 nM
- COc1ccc2nccc([C@@H](O)CN3CCC(NC(=O)c4ccc(Cl)c(OC)c4)CC3)c2c1 — 1.7-fold lower, 792 nM
- CC(Cc1ccc(Oc2ccc(Cl)cc2)cc1)NCC(O)c1cccc(Cl)c1 (stereo not drawn) — 1.9-fold lower, 739 nM
- CC(C)(C)c1ccc(CN2CCC(CNC(=O)c3cc(-c4cccc(C(F)(F)F)c4)cs3)C2)cc1 (stereo not drawn) — within 1.5-fold, 1030 nM
- CN(C)c1ccc(-c2csc(C(=O)NCC3CCN(CCC(C)(C)C)C3)c2)cc1 (stereo not drawn) — within 1.5-fold, 1500 nM
- Oc1ccc2[nH]cc(C3CCN(CCC(c4ccccc4)c4ccccc4)CC3)c2c1 — within 1.5-fold, 994 nM
- COc1ccc(NC(=O)CCNc2cc(C)nc(NCCOc3ccccc3)n2)cc1 — 1.8-fold lower, 746 nM
- CN(C)CCn1c(=N)n(CC(O)c2ccc(Cl)c(Cl)c2)c2ccccc21 (stereo not drawn) — 1.7-fold lower, 798 nM
- CCNc1cc(C(=O)N[C@@H](Cc2ccccc2)[C@H](O)CNCc2cccc(OC)c2)c(OC)c(N2CCCCS2(=O)=O)c1 — 2-fold lower, 689 nM
- O=C(c1cc(OC(F)(F)F)ccc1O)N1CCN(c2ccccc2)CC1 — within 1.5-fold, 1050 nM
- Cc1ccc(F)c(OCC2CCCN(c3ccc(C(=O)NC4CC4)cn3)C2)c1 (stereo not drawn) — 1.8-fold lower, 773 nM
- COc1ccc(CNCc2ccccc2)cc1-c1cccc(S(=O)(=O)NCCN2CCCC2)c1 — 1.7-fold lower, 786 nM
- N=C(N)NC(=O)Nc1cc(F)c(Cl)c(Cl)c1 — 2.7-fold lower, 505 nM
- O=C(C=Cc1ccc(C(=O)Nc2ccc(C3=NCCN3)cc2)cc1)Nc1ccc(C2=NCCN2)cc1 — 39-fold lower, 34.7 nM
- COc1ccc2ncn(-c3ccc(C(N)=O)c(OCc4ccccc4C(F)(F)F)c3)c2c1 — 2.5-fold lower, 540 nM
- Oc1ccc2nc(Nc3ccccc3)nc(NCCc3ccccc3)c2c1 — 9-fold lower, 152 nM
- CN1CCN(CCCN(Cc2csc(-c3ccc(CNCc4ccccc4)cc3)n2)C(=O)Nc2cccc(Cl)c2)CC1 — 1.7-fold lower, 789 nM
- O=C(N[C@@H](Cc1ccccc1)C(=O)NCCN1CCCC1)c1ccc(O)c(-c2ccc(Cl)c(Cl)c2)c1 — 1.7-fold lower, 800 nM
- CN1CCCN(Cc2cccc(-c3cccc(NC(=O)c4ccc(C#N)cc4)c3)c2)CC1 — within 1.5-fold, 1140 nM
- COc1ccc(-c2csc(N(CCCN(C)C)C(=O)c3cc4c(C)nn(-c5ccccc5)c4s3)n2)cc1 — 2.2-fold lower, 623 nM
- NCc1cccc(-c2ccc(CNC3CCN(Cc4ccccc4)CC3)cc2)c1 — within 1.5-fold, 1700 nM
- CCCc1cc(Cc2cnc(N)nc2N)c2cccnc2c1OC — 2-fold lower, 675 nM
- CN(C)CCCNCc1ccc(-c2ccc(CNCCOc3ccccc3)cc2)cc1 — 74-fold lower, 18.6 nM
- CCCCCc1cc(O)c2c(c1)OC(C)(C)c1ccncc1-2 — 1.8-fold lower, 763 nM
- CCCCOc1cc2ncc(C(=O)OCC)c(O)c2cc1OCCCC — 6.8-fold lower, 201 nM
- CC(C)CC(=O)N1CCNC[C@@H]1C(=O)NCCSCc1c(F)cccc1Cl — within 1.5-fold, 1200 nM
- CC(C)NCc1ccc(-c2cccc(NC(=O)c3cccc(Cl)c3)c2)cc1 — 1.9-fold lower, 728 nM
- O=C(NC1CCC1)C1CCN(C(c2ccccc2)c2cc(F)cc(F)c2)CC1 (stereo not drawn) — 1.7-fold lower, 797 nM
- CCOC(=O)c1cc(C(=O)NCCCCN2CCC(c3cn(C)c4ccccc34)CC2)ccc1-c1ccc(C(F)(F)F)cc1 — within 1.5-fold, 1200 nM
- CC(C)C(=O)NC(Nc1ccc([N+](=O)[O-])cc1)C(Cl)(Cl)Cl (stereo not drawn) — 1.6-fold lower, 835 nM
- CC1(C)NC(N)=NC(=N)N1OCCCCOc1ccc(Cl)cc1C1CCCCC1 — 430-fold lower, 3.2 nM
- O=C(CSc1nccn1C1CCCC1)Nc1cc(C(F)(F)F)ccc1Cl — 3.6-fold lower, 382 nM
- N#Cc1ccc2c(c1)CN(C1CCC(NC(=O)C3=Cc4cc(Cl)ccc4OC3)CC1)CCC2 (stereo not drawn) — within 1.5-fold, 1330 nM
- COc1ccc2nccc([C@@H](O)CN3CCC(NC(=O)c4cc5c(Cl)cc(Cl)cc5[nH]4)CC3)c2c1 — 5.9-fold lower, 233 nM
- CN(C)CC(O)C(O)(c1ccccc1)c1ccc(F)cc1 (stereo not drawn) — within 1.5-fold, 1150 nM
- O=C(COc1ccc(Cl)cc1)N1CCC(CN2CCC(c3c[nH]c4ccccc34)CC2)CC1 — within 1.5-fold, 1100 nM
- CCCCSc1c(CNCCCCCCNCc2ccc3ccccc3c2SCCCC)ccc2ccccc12 — within 1.5-fold, 999 nM
- FC(F)(F)c1ccc2[nH]c(-c3ccc(-c4ccc(CNCc5cnn(-c6ccccc6)n5)cc4)cc3)nc2c1 — 3.2-fold lower, 433 nM
- CCCCCCCN1CC[C@@H](C[C@H](N)Cc2ccnc3ccc(OC)cc23)[C@@H](CC)C1 — within 1.5-fold, 1070 nM
- N#Cc1ccc(S(=O)(=O)N2C(c3cccc([N+](=O)[O-])c3)C(C(=O)c3ccccc3)N(C3CCCCC3)C2c2cccc([N+](=O)[O-])c2)cc1 (stereo not drawn) — within 1.5-fold, 1080 nM
- Cc1ccc(NC(=O)Nc2ccccc2)cc1-c1ccc(C(=O)Nc2ccncc2)cc1 — 5.7-fold lower, 240 nM
- COc1ccc(Cl)cc1-c1nc(C(=O)NCCN2CCCCC2)c(C)s1 — within 1.5-fold, 938 nM
- CC(C)C[C@@H](/C=N/N1CCOC1=O)NC(=O)[C@H](CC(C)C)NC(=O)c1ccc(OCCN2CCOCC2)cc1 — 6.4-fold lower, 215 nM
- C=CCc1ccc(C[C@H](NC(=O)OC(C)(C)C)C(=O)OC)cc1 — 1.7-fold lower, 814 nM
- CC(=O)Nc1ccc(OCCN(CC(C)(C)C)c2ccc(C#N)c(C(F)(F)F)c2)c(Cl)c1 — 2.8-fold lower, 493 nM
- Nc1c2c(nc3ccccc13)C(=Cc1ccc(O)cc1)CCC2 — 7.8-fold lower, 176 nM
- c1ccc2c(CNCCCCCCNCc3c(OCC4CC4)ccc4ccccc34)c(OCC3CC3)ccc2c1 — within 1.5-fold, 928 nM
- Cc1cc(N(C)C)nc(Nc2ccc(NC(=O)c3ccccc3Cl)cc2)n1 — within 1.5-fold, 1020 nM
- Cc1[nH]c(C)c(-c2ccc(OCc3ccc(F)cc3)cc2)c(=O)c1Cl — 2.4-fold lower, 566 nM
- O=C(Nc1ccc(Cl)c(Cl)c1)N(Cc1ccccc1Br)C1CCNCC1 — within 1.5-fold, 1030 nM
- Cc1ccccc1C1CCN(C2CCC(NC(=O)/C=C/c3cc(F)ccc3C(F)(F)F)CC2)CC1 (stereo not drawn) — within 1.5-fold, 953 nM
- CCCc1ccc(C2CCN(CCCCNC(=O)c3ccc(NC(=O)c4ccc(Cl)cc4)cc3)CC2)cc1 — 2.2-fold lower, 628 nM
- COc1ccc2nccc([C@@H](O)CN3CCC(NCc4nc5cc(F)ccc5o4)CC3)c2c1 — 9.2-fold lower, 149 nM
- O=C(CCc1c[nH]cn1)Nc1ccc(-c2cccc(-c3nc4ccccc4[nH]3)c2)cc1 — 3.9-fold lower, 348 nM
- CCNC(=O)Nc1ccc(-c2cccc(-c3nc4cccc(C)c4[nH]3)c2)cc1 — 1.8-fold lower, 756 nM
- CC(C)n1ncc2c(C(=O)N3CCCCCC3)cc(-c3ccccc3)nc21 — 1.7-fold lower, 789 nM
- CC(C)CNC(=O)c1ccnc(-c2ccc(CNCCCc3ccccc3)cc2)c1 — 1.9-fold lower, 728 nM
- O=c1cc(NCCCNCc2scc3c(Cl)cc(C(F)(F)F)nc23)[nH]c2ccccc12 — 1.8-fold lower, 754 nM
- Brc1ccc(Nc2nc(NCC3CCCO3)c3ccccc3n2)cc1 (stereo not drawn) — 2.3-fold lower, 584 nM
- CCOC(=O)NC1=NC(C)(C)N(OCc2cccc3c2ccc2ccccc23)C(NC(=O)OCC)=N1 — 8-fold lower, 172 nM
- O=C(CCNc1ccnc(NCCc2ccc(F)cc2)n1)Nc1ccccc1 — 1.7-fold lower, 829 nM
- COc1ccc(-c2nnc(Sc3ccc(C#N)c([N+](=O)[O-])c3)n2CC(C)C)cc1 — 1.7-fold lower, 821 nM
- CC(=O)N/N=C/[C@H](CCc1ccccc1)NC(=O)[C@H](CC(C)C)NC(=O)c1ccc(F)cc1 — 2-fold lower, 692 nM
- COc1cc2nc(NCc3cccc(CNC(=O)c4ccc(-c5ccc(C(C)=O)cc5)cc4)c3)nc(N)c2cc1OC — 12-fold lower, 118 nM
- O=C(NCCCCN1CCC(c2ccc3c(c2OCCO)CCCC3)CC1)c1sc(-c2ccc(C(F)(F)F)cc2)nc1CO — within 1.5-fold, 1050 nM
- CCOc1cc(O)c(-c2nc(N)ncc2-c2ccc3c(c2)OCCO3)cc1CC — 1.9-fold lower, 729 nM
- Cc1cc(C(=O)NC2CCN(Cc3ccccc3)CC2)ccc1-c1nc2cc(Cl)c(Cl)cc2[nH]1 — within 1.5-fold, 959 nM
- Cc1nc(C(C)Nc2nncc(-c3ccc(Cl)cc3)n2)cs1 (stereo not drawn) — within 1.5-fold, 1330 nM
- Cc1cc(NCCCN2CCCC2=O)n2c(nc3ccccc32)c1C#N — 1.6-fold lower, 858 nM
- Cc1[nH]c(CNCCCNc2cc(=O)c3ccccc3[nH]2)c(Br)c1Br — within 1.5-fold, 1040 nM
- CC(=O)Nc1ccc(C(=O)N2CCN(c3ccnc4cc(Cl)ccc34)CC2)cc1 — 1.5-fold lower, 909 nM
- Cc1nc2ccccc2n1C1CC2CCC(C1)N2CCCC1(c2ccccc2)CCN(C(=O)OCc2ccccc2)CC1 (stereo not drawn) — within 1.5-fold, 998 nM
- Nc1ccc(-c2nc3cc(Oc4ccc5[nH]c(-c6ccc(N)cc6)nc5c4)ccc3[nH]2)cc1 — 1.9-fold lower, 719 nM
- Oc1ccc(CCNc2nc(NCCCOc3ccccc3-c3ccncc3)nc(N3CCNCC3)n2)cc1 — within 1.5-fold, 1110 nM
- FC(F)(F)c1cccc(N=C(S)NN=Cc2ccccn2)c1 — 4-fold lower, 346 nM
- COc1ccccc1OCCN(CC(O)COc1cccc2[nH]c3ccccc3c12)CC(O)COc1cccc2[nH]c3ccccc3c12 (stereo not drawn) — 2.2-fold lower, 636 nM
- O=C(Nc1ccccc1)N(Cc1cccc(-c2ccc(CNC3CCCC3)cc2)c1)C1CCN(Cc2ccccc2)CC1 — 3.5-fold lower, 394 nM
- Cc1cc2c(NC(=O)NC3CCN(CCc4cccc(Cl)c4)CC3)cccc2cn1 — 3.7-fold lower, 370 nM
- Cc1c(CNCCCNc2nc3cscc3[nH]2)sc(C(F)F)c1Br — within 1.5-fold, 936 nM
- CC(C)(C)Oc1ccc(CC2NC3(C(=O)N(Cc4ccc(C(C)(C)C)cc4)c4ccccc43)C3C(=O)N(c4ccc(Br)cc4)C(=O)C23)cc1 (stereo not drawn) — 1.9-fold lower, 717 nM
- CC(=O)CCc1ccc(OCCN(Cc2ccccc2C(F)(F)F)c2ccc(C#N)c(C(F)(F)F)c2)cc1 — 5.1-fold lower, 267 nM
- CC1(C)N=C(N)N=C(N)N1OCCCCON1C(N)=NC(N)=NC1(C)C — 21-fold lower, 66 nM
- O=S(=O)(ON=C1CCc2ccccc21)c1ccc(Cl)cc1 — within 1.5-fold, 1310 nM
- CC(=O)N[C@H](C(=O)Nc1ccc(-c2cccc(-c3nc4cccc(C)c4[nH]3)c2)cc1)C(C)C — within 1.5-fold, 1090 nM
- C[C@@H](N/C(=N\c1ccc(-c2ccccc2)cc1)Nc1ccc(C#N)cc1O)c1ccc(Br)cc1 — 2-fold lower, 699 nM
- CN1CCCN(Cc2cccc(-c3cccc(NC(=O)c4ccc(Cl)cc4)c3)c2)CC1 — within 1.5-fold, 922 nM
- COc1ccc2ncc(F)c([C@@H](O)CN3CCC(NCc4cc5c(cn4)OCCO5)CC3)c2c1 — 9.8-fold lower, 140 nM
- Cc1c(-c2cccc(C(C)(C)NCCCN3CCCCC3)c2)cnc(N)c1C — within 1.5-fold, 938 nM
- Cc1cnc2cc3c(cc2c1N1CCN(C)CC1)NCC3 — 1.8-fold lower, 779 nM
- CC(C)CCN1CCC(Oc2ccc(NC(=O)c3ccc(F)cc3)cc2Cl)CC1 — 1.9-fold lower, 725 nM
- CCOC(=O)c1cnc2c(C(F)(F)F)cccc2c1Nc1ccc(O)cc1 — 2.2-fold lower, 632 nM
- Cc1ccccc1C1CCN(C2CCC(NC(=O)c3ccc(-c4ccccn4)s3)CC2)CC1 (stereo not drawn) — within 1.5-fold, 1180 nM
